Test [1] relates to murine microglial cell line BV‐2. Briefly: Crystal violet (CV) cell viability assay, BV‐2. The class given is cell-based, mouse. The following applies: 72 h. The source says: (§1) Thus, care must be taken when comparing their biological activities with those of our previous studies, even with the same cell line, because the covalent vs. non‐covalent combination of drugs might imply different mechanisms of action in the cell.44 Here, we studied the in vitro activity of ruthenacarborane 3, i. e. free acid, and its 8‐hydroxyquinolyl (4) and 4‐{(7‐chloroquinolin‐4‐yl)oxy}butanol‐1‐yl (5) esters, against a panel of cancer cell lines (B16 mouse melanoma, A375 human skin melanoma, MCF‐7 human breast adenocarcinoma, LN229 human glioblastoma, U251 human glioma). Human fibroblast cell line MRC‐5, murine microglial cell line BV‐2 as well as peritoneal exudate cells (Mph), were chosen as models for non‐malignant cells. […] On the other side, we wanted to assess the reproducibility of the viability data, under either controlled (with BSA) or uncontrolled (without BSA) conditions, in two sets of independent assays. […] Cells were exposed to 3–5 for 72 h, after which cell viability was determined via 3‐(4,5‐dimethylthiazol‐2‐yl)‐2,5‐diphenyltetrazolium bromide (MTT) and crystal violet (CV) assays, in parallel (Table 2). Cisplatin was also tested as reference.
Preparation of drug solutions. […] Stock solution of cisplatin was prepared in DMF (10 mM) immediately before use. A stock solution of BSA in PBS was prepared at 1.28 mM concentration, and stored at 4 °C in the dark. […] Alternatively, 3 or 4 (DMSO stock solution) were added to the BSA solution in PBS, always with a 10 : 1 molar ratio of BSA to ruthenacarborane. […]
Colorimetric assays for cellular viability. […] The absorbance was measured with an automated microplate reader at λmax 540 nm, with the reference λmax 670 nm. Untreated cells or cells treated only with BSA (control) were also measured, as reference for BSA‐free and BSA‐containing drug formulations, respectively. […] Cell viability is expressed as percentage (%) relative to control (untreated cultures).58 Experiments were run in three independent replicates. […]

The subject of test [2] is MCF‐7 human breast adenocarcinoma. Briefly: MTT cell viability assay, MCF‐7. The format is cell-based. The following applies: 72 h.
Description: as §1
(§2) Preparation of drug solutions. […] Stock solution of cisplatin was prepared in DMF (10 mM) immediately before use. A stock solution of BSA in PBS was prepared at 1.28 mM concentration, and stored at 4 °C in the dark. […] Alternatively, 3 or 4 (DMSO stock solution) were added to the BSA solution in PBS, always with a 10 : 1 molar ratio of BSA to ruthenacarborane. The BSA−ruthenacarborane solutions were incubated 0.5–1 h at room temperature, then diluted with cell culture medium to the desired final concentrations. Final concentrations of 3 and 4 were the same as for the BSA‐free formulation. Final DMSO was 0.02–0.5 vol %.
(§3) Colorimetric assays for cellular viability. […] For counting the number of attached (viable) cells, cells were fixed with 4 % (w/v) paraformaldehyde for 10 min at room temperature, and subsequently stained for 15 min with […] crystal violet (CV) solution. Cells were then washed with tap water, dried in air, and the CV dye was dissolved in 33 % (w/v) acetic acid solution. For the detection of mitochondrial respiration, cells were cultivated in MTT staining solution (0.5 mg mL^−1) for approximately 1 h. The dye was then discarded, and the formed formazan (purple) was dissolved in DMSO. The absorbance was measured with an automated microplate reader at λmax 540 nm, with the reference λmax 670 nm. Untreated cells or cells treated only with BSA (control) were also measured, as reference for BSA‐free and BSA‐containing drug formulations, respectively. […] Cell viability is expressed as percentage (%) relative to control (untreated cultures).58 Experiments were run in three independent replicates. […]
For orientation: Formazan colour is commonly taken as a measure of viable cells.

Test [3] shares this test system. Briefly: Crystal violet (CV) cell viability assay, MCF‐7. The format is cell-based. The following applies: 72 h.
Description: as §1, §2, §3

The subject of a further test is MCF‐7 cells. Briefly: CFSE staining, flow cytometry, MCF‐7. The class given is cell-based, human. Conditions: MCF‐7, 20 μM, 72 h. On the procedure: Flow cytometry. For gaining better insights into the mechanisms of action of the ruthenium complexes, MCF‐7 and LN229 cells incubated with an IC50 dose of 3 or 4, were analyzed via flow cytometry. Several staining protocols were carried out in parallel, in independent experiments: i) AnnV/PI for the detection of apoptotic cell death, ii) AO for the detection of acidic vacuoles, iii) ApoStat for checking caspase activation, iv) CFSE for detecting interference with cellular proliferation, and v) DAPI for the detection of morphological signs of apoptosis. Untreated cells or cells treated only with BSA (control) were also measured, as reference for BSA‐free and BSA‐containing drug formulations, respectively. […] Channels FL1 (green emission), FL2 (orange emission) and/or FL3 (dark red emission) were used for fluorescence detection, according to the specific staining agent. Sideward Scatter (SSC) for MCF‐7 cells treated with 4 or BSA−4 was also analyzed, with respect to the control, for detection of shifts of cell granularity. […]
Staining Protocols for Flow Cytometric Analysis. […] Finally, cells were washed in PBS, resuspended in PBS (or AnnV‐binding buffer for AnnV/PI), and analysed. […] Cells were then washed, trypsinised, dissolved in PBS and analysed by CyFlow® Space Partec using the PartecFloMax® software (Partec GmbH, Münster, Germany). […]
On the technique in general: In flow cytometry, cells or beads pass a laser one at a time.

“closo‐ [Compound 3, closo‐ [3‐(η^6‐p‐Cymene)‐1‐(CH2COOH)‐3,1,2‐RuC2B9H10]]”: the 50% inhibitory concentration (IC50) in test [1] was determined as 68.2 ± 1.3 µM; in test [2], 7.7 ± 0.8 µM; in test [3], 22.9 ± 1.4 µM. For the same substance, in the test with MCF‐7 cells, the “cellular proliferation (CFSE staining)” value is given as “inhibition of cellular proliferation”.
The corresponding values for “closo ‐[3‐(η^6‐p‐Cymene)‐1‐(quinolin‐8‐yl‐acetate)‐3,1,2‐RuC2B9H10] [Compound 4]” are 9.2 ± 0.1 µM, 15.9 ± 0.2 µM, 16.9 ± 1.1 µM and “inhibition of cellular proliferation”.

As a reminder, the IC50 is the concentration needed to halve the response being measured.

These data come from paper PMC6973020, “Quinoline‐Conjugated Ruthenacarboranes: Toward Hybrid Drugs with a Dual Mode of Action” (Chemmedchem, 2019).
